# Test results taken from ChEMBL document CHEMBL6114992, “Design, synthesis, biological evaluation, and mechanism of action of new pyrazines as anticancer agents in vitro and in vivo” (Bioorg Med Chem, 2025).
# Active and inactive are the calls of the source. The calls are words filed in the database; no cut-off is given here.
# Assays:
# SK-OV-3 [1] = experiment: Induction of apoptosis in human SK-OV-3 cells assessed as early apoptotic cells at 1 uM incubated for 48 hrs by Annexin V-FITC/PI staining based flow cytometry (reference value: 0.08 %); type: functional
# SK-OV-3 [2] = experiment: Induction of apoptosis in human SK-OV-3 cells assessed as change in mitochondrial membrane potential at 1 uM incubated for 48 hrs by JC-1 staining based flow cytometry (reference value: 5.34 %); type: functional
# SK-OV-3 [3] = experiment: Induction of apoptosis in human SK-OV-3 cells assessed as late apoptotic cells at 1 uM incubated for 48 hrs by Annexin V-FITC/PI staining based flow cytometry (reference value: 4.51 %); type: functional
# THP-1 [4] = experiment: Induction of apoptosis in human THP-1 cells assessed as early apoptotic cells at 2.5 uM incubated for 48 hrs by Annexin V-FITC/PI staining based flow cytometry (reference value: 0.45 %); type: functional
# KG-1 [5] = experiment: Downregulation of XIAP expression in human KG-1 cells incubated for 48 hrs by Western blot analysis; type: functional, cell-based; details: dose 0.5-2.5 µM
# SK-OV-3 [6] = experiment: Antiproliferative activity against human SK-OV-3 cells assessed as inhibition of cell growth incubated for 72 hrs by MTT assay; type: functional, cell-based; details: SK-OV-3, 72 h
# THP-1 [7] = experiment: Antiproliferative activity against human THP-1 cells assessed as inhibition of cell growth incubated for 72 hrs by MTT assay; type: functional, cell-based; details: THP-1, 72 h
# SK-OV-3 [8] = experiment: Induction of apoptosis in human SK-OV-3 cells assessed as change in mitochondrial membrane potential at 5 uM incubated for 48 hrs by JC-1 staining based flow cytometry (reference value: 5.34 %); type: functional
# SK-OV-3 [9] = experiment: Induction of apoptosis in human SK-OV-3 cells assessed as viable cells at 2.5 uM incubated for 48 hrs by Annexin V-FITC/PI staining based flow cytometry (reference value: 90.97 %); type: functional; details: read-out: Activity
# SK-OV-3 [10] = experiment: Induction of apoptosis in human SK-OV-3 cells assessed as viable cells at 5 uM incubated for 48 hrs by Annexin V-FITC/PI staining based flow cytometry (reference value: 90.97 %); type: functional; details: read-out: Activity
# THP-1 [11] = experiment: Induction of apoptosis in human THP-1 cells assessed as late apoptotic cells at 0.5 uM incubated for 48 hrs by Annexin V-FITC/PI staining based flow cytometry (reference value: 0.74 %); type: functional
# [12] = molecular target: Signal transducer and activator of transcription 3 (Homo sapiens) (UniProt P40763); experiment: Inhibition of STAT3 phosphorylation in human KG-1 cells at 0.5 to 2.5 uM incubated for 48 hrs by Western blot analysis; type: cell-based; details: dose 0.5-2.5 µM
# Signal transducer and activator of transcription 3 (Homo sapiens), sequence (P40763 whole entry): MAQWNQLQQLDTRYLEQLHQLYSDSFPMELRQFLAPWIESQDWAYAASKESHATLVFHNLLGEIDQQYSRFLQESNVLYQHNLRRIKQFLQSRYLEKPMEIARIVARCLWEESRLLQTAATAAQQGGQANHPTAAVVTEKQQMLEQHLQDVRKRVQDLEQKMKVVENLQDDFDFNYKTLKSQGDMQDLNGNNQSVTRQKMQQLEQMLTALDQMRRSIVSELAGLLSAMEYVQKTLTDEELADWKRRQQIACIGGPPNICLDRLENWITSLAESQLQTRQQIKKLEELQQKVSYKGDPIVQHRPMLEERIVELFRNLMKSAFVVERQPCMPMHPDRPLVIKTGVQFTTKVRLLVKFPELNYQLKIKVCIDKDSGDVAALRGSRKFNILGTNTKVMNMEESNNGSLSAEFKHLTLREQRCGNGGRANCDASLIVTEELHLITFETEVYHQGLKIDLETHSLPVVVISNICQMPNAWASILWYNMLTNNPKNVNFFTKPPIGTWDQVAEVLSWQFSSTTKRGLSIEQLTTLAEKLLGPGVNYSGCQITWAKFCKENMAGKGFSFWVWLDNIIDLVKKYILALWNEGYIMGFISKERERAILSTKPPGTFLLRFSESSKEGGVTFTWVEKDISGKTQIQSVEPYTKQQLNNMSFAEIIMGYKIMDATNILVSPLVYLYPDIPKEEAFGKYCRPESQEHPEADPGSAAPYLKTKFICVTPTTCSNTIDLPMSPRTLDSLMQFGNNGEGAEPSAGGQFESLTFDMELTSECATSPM
# THP-1 [13] = experiment: Induction of apoptosis in human THP-1 cells assessed as viable cells at 0.5 uM incubated for 48 hrs by Annexin V-FITC/PI staining based flow cytometry (reference value: 96.33 %); type: functional; details: read-out: Activity
# THP-1 [14] = experiment: Induction of apoptosis in human THP-1 cells assessed as early apoptotic cells at 1 uM incubated for 48 hrs by Annexin V-FITC/PI staining based flow cytometry (reference value: 0.45 %); type: functional
# SK-OV-3 [15] = experiment: Induction of apoptosis in human SK-OV-3 cells assessed as early apoptotic cells at 5 uM incubated for 48 hrs by Annexin V-FITC/PI staining based flow cytometry (reference value: 0.08 %); type: functional
# [16] = Antiproliferative activity against human SK-OV-3/Taxol cells assessed as inhibition of cell growth incubated for 72 hrs by MTT assay; type: functional, cell-based; details: SK-OV-3, 72 h
# SK-OV-3 [17] = experiment: Induction of apoptosis in human SK-OV-3 cells assessed as necrotic cells at 2.5 uM incubated for 48 hrs by Annexin V-FITC/PI staining based flow cytometry (reference value: 4.45 %); type: functional
# SK-OV-3 [18] = experiment: Induction of apoptosis in human SK-OV-3 cells assessed as late apoptotic cells at 2.5 uM incubated for 48 hrs by Annexin V-FITC/PI staining based flow cytometry (reference value: 4.51 %); type: functional
# THP-1 [19] = experiment: Induction of apoptosis in human THP-1 cells assessed as early apoptotic cells at 0.5 uM incubated for 48 hrs by Annexin V-FITC/PI staining based flow cytometry (reference value: 0.45 %); type: functional
# THP-1 [20] = experiment: Induction of apoptosis in human THP-1 cells assessed as late apoptotic cells at 2.5 uM incubated for 48 hrs by Annexin V-FITC/PI staining based flow cytometry (reference value: 0.74 %); type: functional
# U-937 = experiment: Antiproliferative activity against human U-937 cells assessed as inhibition of cell growth incubated for 72 hrs by MTT assay; type: functional, cell-based; details: U-937, 72 h
# SK-OV-3 [21] = experiment: Downregulation of XIAP expression in human SK-OV-3 cells incubated for 48 hrs by Western blot analysis; type: functional, cell-based
# THP-1 [22] = experiment: Induction of apoptosis in human THP-1 cells assessed as necrotic cells at 0.5 uM incubated for 48 hrs by Annexin V-FITC/PI staining based flow cytometry (reference value: 2.48 %); type: functional
# THP-1 [23] = experiment: Induction of apoptosis in human THP-1 cells assessed as necrotic cells at 1 uM incubated for 48 hrs by Annexin V-FITC/PI staining based flow cytometry (reference value: 2.48 %); type: functional
# SK-OV-3 [24] = experiment: Induction of apoptosis in human SK-OV-3 cells assessed as necrotic cells at 1 uM incubated for 48 hrs by Annexin V-FITC/PI staining based flow cytometry (reference value: 4.45 %); type: functional
# THP-1 [25] = experiment: Induction of apoptosis in human THP-1 cells assessed as viable cells at 1 uM incubated for 48 hrs by Annexin V-FITC/PI staining based flow cytometry (reference value: 96.33 %); type: functional; details: read-out: Activity
# KG-1 [26] = experiment: Antiproliferative activity against human KG-1 cells assessed as inhibition of cell growth incubated for 72 hrs by MTT assay; type: functional, cell-based; details: KG-1, 72 h
# SK-OV-3 [27] = experiment: Induction of apoptosis in human SK-OV-3 cells assessed as change in mitochondrial membrane potential at 2.5 uM incubated for 48 hrs by JC-1 staining based flow cytometry (reference value: 5.34 %); type: functional
# THP-1 [28] = experiment: Induction of apoptosis in human THP-1 cells assessed as necrotic cells at 2.5 uM incubated for 48 hrs by Annexin V-FITC/PI staining based flow cytometry (reference value: 2.48 %); type: functional
# SK-OV-3 [29] = experiment: Induction of apoptosis in human SK-OV-3 cells assessed as viable cells at 1 uM incubated for 48 hrs by Annexin V-FITC/PI staining based flow cytometry (reference value: 90.97 %); type: functional; details: read-out: Activity
# [30] = molecular target: Signal transducer and activator of transcription 3 (Homo sapiens) (UniProt P40763); experiment: Inhibition of STAT3 phosphorylation in human THP-1 cells at 0.5 to 2.5 uM incubated for 48 hrs by Western blot analysis; type: cell-based; details: dose 0.5-2.5 µM
# THP-1 [31] = experiment: Induction of apoptosis in human THP-1 cells assessed as late apoptotic cells at 1 uM incubated for 48 hrs by Annexin V-FITC/PI staining based flow cytometry (reference value: 0.74 %); type: functional
# THP-1 [32] = experiment: Induction of apoptosis in human THP-1 cells assessed as viable cells at 2.5 uM incubated for 48 hrs by Annexin V-FITC/PI staining based flow cytometry (reference value: 96.33 %); type: functional; details: read-out: Activity
# SK-OV-3 [33] = experiment: Induction of apoptosis in human SK-OV-3 cells assessed as necrotic cells at 5 uM incubated for 48 hrs by Annexin V-FITC/PI staining based flow cytometry (reference value: 4.45 %); type: functional
# THP-1 [34] = experiment: Induction of apoptosis in human THP-1 cells assessed as change in mitochondrial membrane potential at 1 uM incubated for 48 hrs by JC-1 staining based flow cytometry (reference value: 5.15 %); type: functional
IC50 (SK-OV-3 [6]) [nM],IC50 (THP-1 [7]) [nM],inhibition [12],Compound,Activity (SK-OV-3 [1]) [%],Activity (SK-OV-3 [2]) [%],Activity (SK-OV-3 [3]) [%],Activity (THP-1 [4]) [%],Activity (KG-1 [5]),Activity (SK-OV-3 [8]) [%],viability at 2.5 µM (SK-OV-3 [9]) [%],viability at 5 µM (SK-OV-3 [10]) [%],Activity (THP-1 [11]) [%],viability at 0.5 µM (THP-1 [13]) [%],Activity (THP-1 [14]) [%],Activity (SK-OV-3 [15]) [%],IC50 [16] [nM],Activity (SK-OV-3 [17]) [%],Activity (SK-OV-3 [18]) [%],Activity (THP-1 [19]) [%],Activity (THP-1 [20]) [%],other results
1310,600,Active,CCc1nccnc1C(=O)/C=C/c1ccccn1,0.37,11.51,19.41,13.09,Dose-dependent-effect,31.28,67,44.6,1.53,93.5,4.75,1.46,1240,9.16,23.46,2.51,3.26,IC50 (U-937): 690 nM; Activity (SK-OV-3 [21]): Dose-dependent-effect; Activity (THP-1 [22]): 2.41%; Activity (THP-1 [23]): 1.94%; Activity (SK-OV-3 [24]): 8.98%; viability at 1 µM (THP-1 [25]): 91.6%; IC50 (KG-1 [26]): 630 nM; Activity (SK-OV-3 [27]): 17.88%; Activity (THP-1 [28]): 1.77%; viability at 1 µM (SK-OV-3 [29]): 71.2%; inhibition [30]: Active; Activity (THP-1 [31]): 1.73%; viability at 2.5 µM (THP-1 [32]): 81.9%; Activity (SK-OV-3 [33]): 8.84%; Activity (THP-1 [34]): 9.01%
1390,1520,Active,Cc1nccnc1C(=O)/C=C/c1cccc(C#N)c1,1.09,13.1,21.04,15.05,Dose-dependent-effect,53.8,63.3,22.5,1.46,93.3,3.12,2.19,1420,9.29,26.65,3.41,4.82,IC50 (U-937): 1730 nM; Activity (SK-OV-3 [21]): Dose-dependent-effect; Activity (THP-1 [22]): 1.78%; Activity (THP-1 [23]): 2.24%; Activity (SK-OV-3 [24]): 5.49%; viability at 1 µM (THP-1 [25]): 92.7%; IC50 (KG-1 [26]): 1790 nM; Activity (SK-OV-3 [27]): 18.87%; Activity (THP-1 [28]): 2.27%; viability at 1 µM (SK-OV-3 [29]): 72.4%; inhibition [30]: Active; Activity (THP-1 [31]): 1.94%; viability at 2.5 µM (THP-1 [32]): 77.8%; Activity (SK-OV-3 [33]): 9.68%; Activity (THP-1 [34]): 7.94%
